Laboratory results from US9115088B2, “Anti-malarial agents” (MERCK PATENT GMBH, priority 2012, dated 2015).
Counter-ions that a name gives are not always drawn. Like-named read-outs stand apart in the source and are kept apart here.

How the values were obtained:
[1] = system: Plasmodium falciparum strain 3D7; assay: Plasmodium falciparum 3D7 growth inhibition, SYBRgreen fluorescence assay; type: cell-based; settings: minimum of 3 independent experiments, read-out: EC50 (μM) for Pf 3D7
Experimental: Parasite cultures and cytotoxicity assay methodology for Plasmodium falciparum. Cultures of the widely-used malaria reference strain of chloroquinine-sensitive Plasmodium falciparum strain 3D7 were maintained in a 5% suspension of human red blood cells cultured in RPMI 1640 medium supplemented with 0.5% Albumax II (available from Gibco Life Technologies, San Diego, Calif.), 12 mM sodium bicarbonate, 0.2 mM hypoxanthine, (pH 7.3), and 20 mg/litre gentamicin at 37° C., in an atmosphere of 1% O2, 3% CO2 with a gas balance of nitrogen. […] Mefloquine was used as a drug control to monitor the quality of the assay (Z′=0.6 to 0.8, where Z′ is a measure of the discrimination between the positive and negative controls on a screen plate). Dose-response curves were determined from a minimum of 3 independent experiments. Compound bioactivity was expressed as EC50, the effective concentration of compound causing 50% parasite death.

Plasmodium falciparum = assay: P. falciparum SCID mouse model; type: in vivo; settings: preliminary results
Text: Compounds can be further assessed using a murine model of Plasmodium falciparum malaria (the so-called P. falciparum SCID mouse model). The murine Plasmodium falciparum models require the engrafment of mice with human erythrocytes. The use NODscidlL2Rγ^null mice engrafted with human erythrocytes and competent P. falciparum strains have been validated for the preclinincal evaluation of antimalarials. The test protocol is described in detail at Antimicrobial Agents and Chemotherapy, 2009, 53 4533-4536, the contents of which are included herein by reference.

[2] = system: GFP-transfected Plasmodium berghei ANKA strain; assay: Plasmodium berghei mouse model, standard Peter's four-day test; type: in vivo; settings: NMRI female mice, oral, 1 mg/kg 4x (once a day for four days); for % Reduction in parasitaemia: parasitaemia 24 h after last dose
Text: Plasmodium species that lead to human malarial infection are essentially unable to infect non-primate animal models. Rodent models as antimalarial drug discovery efficacy models for compound screening have been extensively used and validated for use through the identification of several antimalarial drugs such as mefloquine, and artemisinin derivatives. Such mouse models, including the Plasmodium berghei mouse model are an integral part of the drug discovery and development pathway. […] In particular experimental results have shown that a compound of formula (I) has improved potency, expressed as ED90, the dose required to eradicate 90% of the target infection [ED90 of 0.3-0.1 mg/kg], versus existing anti-malarial drugs.
Methodology. Using the standard Peter's test in NMRI female mice infected with GFP-transfected Plasmodium berghei ANKA strain were used. Test compounds were dosed orally once a day for four days at nine dose levels ([…], 0.03, 0.1, 0.3, 1, 3, 10, 30 mg/kg) and parasitaemia assessed 24 h after the last dose to determine ED90. The test protocol is described in detail Nature, 2004, 430, 900-904, the contents of which are included herein by reference.

[3] = system: sporogonic development in the mosquito; assay: Standard membrane feeding assay (SMFA); type: in vivo; settings: preliminary results
Text: The standard membrane feeding assay (SMFA) is used to test the potential effects of compounds or drugs on sporogonic development in the mosquito and it is used to asses their potential for malaria transmission blocking in vivo. The test protocol is described in detail at Antimicrobial Agents and Chemotherapy, 2012, 56 3544-3548 and PLoS ONE 7(8): e42821, the contents of which are included herein by reference.

[4] = Thermogravimetric analysis (TGA); type: physicochemical; settings: 10° C./min; example 1A heated to ~120° C., example 2 to ~150° C.
Experimental: Thermogravimetric Analysis (TGA) of compounds of the invention was conducted at 10° C./min ramping form room temperature to desired temperature in open platinum pans using at TA Instruments Q5000 TGA. The temperature was calibrated using nickel and weight using TA-supplied standard weights and verified against calcium oxalate monohydrate dehydration and decomposition. Typical parameters for TGA are described in Table 5. [table]

[5] = Dynamic vapour sorption (DVS) moisture sorption; type: physicochemical; settings: for hygroscopicity (DVS): 25° C.; for water uptake (DVS): 80% R.H./25° C.
Experimental: The moisture sorption of compounds of the invention was measured using a SMS (Surface Measurement Systems) DVS Intrinsic. The relative humidity at 25° C. was calibrated against deliquescence point of LiCl, Mg(NO3)2 and KCl. Parameters for DVS test are listed below. [table]

[6] = Plasmodium falciparum, 3D7, concentration causing 50% parasite death
[7] = concentration causing 50% parasite death

Row | Structure (SMILES) | EC50 [1, 6] | Mean Survival [2] | % Reduction in parasitaemia [2] | EC50 [1, 7] | further results
1 | O=C(NCCN1CCCC1)c1cc(-c2cc(F)c(CN3CCOCC3)c(F)c2)nc2ccc(F)cc12 [Example 8, 2-(3,5-difluoro-4-(morpholinomethyl)phenyl)-6-fluoro-N-(2-(pyrrolidin-1-yl)ethyl)quinoline-4-carboxamide] | 0.004 µM |  |  |  | 
2 | O=C(NCCN1CCCC1)c1cc(-c2ccc(CN3CCOCC3)cc2)nc2ccc(F)cc12 [Example 1, 6-Fluoro-2-[4-(morpholinomethyl)phenyl]-N-(2-pyrrolidin-1-ylethyl)quinoline-4-carboxamide] |  | 14 days | 99.9% | 0.001 µM | in vivo behaviour in the P. falciparum SCID mouse model (Plasmodium falciparum): desirable in vivo behaviour; in vivo behaviour in standard membrane feeding assay [3]: desirable in vivo behaviour; weight loss on heating (TGA) [4]: < 0.1 wt %; solid form change post DVS testing [5]: No solid form change; hygroscopicity (DVS) [5]: non-hygroscopic; water uptake (DVS) [5]: 0.1%
3 | O=C(NCCN1CCCC1)c1cc(-c2ccc(CN3CCOCC3)cc2F)nc2ccc(F)cc12 [Example 7, 6-fluoro-2-(2-fluoro-4-(morpholinomethyl)phenyl)-N-(2-(pyrrolidin-1-yl)ethyl)quinoline-4-carboxamide] | 0.0005 µM | 11 days | 99.9% |  | 
4 | O=C(NCCN1CCCC1)c1cc(-c2ccc(CN3CCOCC3)c(F)c2)nc2ccc(F)cc12 [Example 6, 6-fluoro-2-(3-fluoro-4-(morpholinomethyl)phenyl)-N-(2-(pyrrolidin-1-yl)ethyl)quinoline-4-carboxamide] | 0.0007 µM | 11 days | 99.8% |  | 
5 | O=C(NCCN1CCCC1)c1cc(-c2ccc(CN3CCOCC3)cc2)nc2ccc(F)cc12.O=C(O)/C=C/C(=O)O [Example 2, 6-Fluoro-2-[4-(morpholinomethyl)phenyl]-N-(2-pyrrolidin-1-ylethyl)quinoline-4-carboxamide; fumaric acid salt] |  |  |  | 0.007 µM | weight loss on heating (TGA) [4]: negligible weight loss; solid form change post DVS testing [5]: No solid form change; hygroscopicity (DVS) [5]: slightly hygroscopic; water uptake (DVS) [5]: ~1.2%
6 | O=C(NCCN1CCCC1)c1cc(-c2ccc(CN3CCS(=O)(=O)CC3)cc2)nc2ccc(F)cc12 [Example 9, 2-(4-((1,1-dioxidothiomorpholino)methyl)phenyl)-6-fluoro-N-(2-(pyrrolidin-1-yl)ethyl)quinoline-4-carboxamide] | 0.0006 µM | 7 days | 99.0% |  | 
7 | O=C(NCCN1CCCC1)c1cc(-c2ccc(CN3CCOCC3)cc2Cl)nc2ccc(F)cc12 [Example 11, 2-(2-chloro-4-(morpholinomethyl)phenyl)-6-fluoro-N-(2-(pyrrolidin-1-yl)ethyl)quinoline-4-carboxamide; fumaric acid salt] | 0.003 µM |  |  |  | 
8 | O=C(NCCN1CCCC1)c1cc(-c2ccc(CN3CCOCC3)cc2)nc2ccccc12 [Example 5, 2-[4-(morpholinomethyl)phenyl]-N-(2-pyrrolidin-1-ylethyl)quinoline-4-carboxamide; fumaric acid salt] |  |  |  | 0.003 µM | 
9 | O=C(NCCN1CCCC1)c1cc(-c2ccc(CN3CCOCC3)cc2)nc2ccccc12 [Example 4, 2-[4-(morpholinomethyl)phenyl]-N-(2-pyrrolidin-1-ylethyl)quinoline-4-carboxamide] |  |  |  | 0.001 µM | 
10 | O=C(NCCN1CCCC1)c1cc(-c2ccc(CN3CCOCC3)cc2)nc2ccc(Cl)cc12 [Example 3, 6-chloro-2-[4-(morpholinomethyl)phenyl]-N-(2-pyrrolidin-1-ylethyl)quinoline-4-carboxamide] | 0.001 µM |  |  |  | 
